Measured values: patent US20110319431A1, “Bis Aromatic Compounds for Use as LTC4 Synthase Inhibitors” (BIOLIPOX AB, priority 2009, published 2011)

Target: T1, Recombinant human LTC4 synthase (Homo sapiens, UniProt Q16873)
T1 construct: made in house; host or cells: Pichia pastoris
T1 sequence (Q16873 1-150): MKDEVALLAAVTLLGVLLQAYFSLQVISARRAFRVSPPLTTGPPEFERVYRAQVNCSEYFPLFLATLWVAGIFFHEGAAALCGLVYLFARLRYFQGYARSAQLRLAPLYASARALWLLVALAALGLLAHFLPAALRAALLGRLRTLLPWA
Test: In vitro LTC4 synthase assay (LTA4 to LTC4, HTRF detection)
Assay type: biochemical
Conditions: for inhibition at 10 µM: 5 min, total concentration of title compounds in the assay 10 μM
Experimental: In the assay, LTC4 synthase catalyses the reaction where the substrate LTA4 is converted to LTC4. Recombinant human LTC4 synthase is expressed in Piccia pastoralis and the purified enzyme is dissolved in 25 mM tris-buffer pH 7.8 supplemented with 0.1 mM glutathione (GSH) and stored at −80° C. The assay is performed in phosphate buffered saline (PBS) pH 7.4 and 5 mM GSH in 384-well plates.
The following is added chronologically to each well:
1. 48 μL LTC4 synthase in PBS with 5 mM GSH. The total protein concentration in this solution is 0.5 μg/mL. 2. 1 μL inhibitor in DMSO (final concentration 10 μM). 3. Incubation of the plate at room temperature for 10 min. 4. 1 μL LTA4 (final concentration 2.5 μM). 5. Incubation of the plate at room temperature for 5 min. 6. 10 μL of the incubation mixture is analysed using homogenous time resolved fluorescent (HTRF) detection.

[1] = title compounds of the Examples
[2] = Table 4, title compounds of Example 4

| IC50 [1] | IC50 [2] | inhibition at 10 µM | SMILES |
| --- | --- | --- | --- |
| 129 nM | – | – | CCCCCCSc1ccc(C(=O)c2ccc(N(C)c3ccc(Cl)cc3)cn2)cc1C(=O)O [2:5] |
| 47 nM | – | – | CN(c1ccc(Cl)cc1)c1ccc(C(=O)c2ccc(Sc3ccc(F)c(F)c3)c(C(=O)O)c2)nc1 [2:6] |
| 74 nM | – | – | O=C(c1ccc(N(CC2CC2)c2ccc(Cl)cc2)cc1)c1ccc(Sc2ccccc2)c(C(=O)O)c1 [2:8, 5-{4-[(4-Chlorophenyl)cyclopropylmethylamino]benzoyl}-2-phenylsulfanyl-benzoic acid] |
| 74 nM | – | – | O=C(c1ccc(Sc2ccc(Cl)cc2)c(C(=O)O)c1)c1ccc(N(CC2CC2)c2ccc(Cl)cc2)cn1 [2:9, 5-{5-[(4-Chlorophenyl)cyclopropylmethylamino]pyridine-2-carbonyl}-2-(4-chlorophenylsulfanyl)benzoic acid] |
| 22 nM | – | – | O=C(c1ccc(Sc2ccccc2Cl)c(C(=O)O)c1)c1ccc(N(CC2CC2)c2ccc(Cl)cc2)cn1 [2:10, 5-{5-[(4-Chlorophenyl)cyclopropylmethylamino]pyridine-2-carbonyl}-2-(2-chlorophenylsulfanyl)benzoic acid] |
| 46 nM | – | – | O=C(c1ccc(Sc2ccc(F)cc2)c(C(=O)O)c1)c1ccc(N(CC2CC2)c2ccc(Cl)cc2)cn1 [2:11, 5-{5-[(4-Chlorophenyl)cyclopropylmethylamino]pyridine-2-carbonyl}-2-(4-fluorophenylsulfanyl)benzoic acid] |
| 76 nM | – | – | O=C(c1ccc(Sc2cccc(C(F)(F)F)c2)c(C(=O)O)c1)c1ccc(N(CC2CC2)c2ccc(Cl)cc2)cn1 [2:12, 5-{5-[(4-Chlorophenyl)cyclopropylmethylamino]pyridine-2-carbonyl}-2-(3-trifluoromethylphenylsulfanyl)benzoic acid] |
| 129 nM | – | – | O=C(c1ccc(Sc2ccc(C(F)(F)F)cc2)c(C(=O)O)c1)c1ccc(N(CC2CC2)c2ccc(Cl)cc2)cn1 [2:13, 5-{5-[(4-Chlorophenyl)cyclopropylmethylamino]pyridine-2-carbonyl}-2-(4-trifluoromethylphenylsulfanyl)benzoic acid] |
| 47 nM | – | – | O=C(c1ccc(Sc2ccccc2)c(C(=O)O)c1)c1ccc(N(CC2CC2)c2ccc(Cl)cc2)cn1 [2:14, 5-{5-[(4-Chlorophenyl)cyclopropylmethylamino]pyridine-2-carbonyl}-2-phenylsulfanylbenzoic acid] |
| 96 nM | – | – | CCCCCCSc1ccc(C(=O)c2ccc(N(CC3CC3)c3ccc(Cl)cc3)cn2)cc1C(=O)O [2:15, 5-{5-[(4-Chlorophenyl)cyclopropylmethylamino]pyridine-2-carbonyl}-2-(1-hexylsulfanyl)benzoic acid] |
| 41 nM | – | – | O=C(c1ccc(Sc2ccc(F)c(F)c2)c(C(=O)O)c1)c1ccc(N(CC2CC2)c2ccc(Cl)cc2)cn1 [2:16, 5-{5-[(4-Chlorophenyl)cyclopropylmethylamino]pyridine-2-carbonyl}-2-(3,4-difluorophenylsulfanyl)benzoic acid] |
| 102 nM | – | – | O=C(c1ccc(Sc2ccc(Br)cc2)c(C(=O)O)c1)c1ccc(N(CC2CC2)c2ccc(Cl)cc2)cn1 [2:17, 2-(4-Bromophenylsulfanyl)-5-{5-[(4-chlorophenyl)cyclopropylmethyl-amino]pyridine-2-carbonyl}benzoic acid] |
| 46 nM | – | – | O=C(c1ccc(Sc2cccc(Cl)c2)c(C(=O)O)c1)c1ccc(N(CC2CC2)c2ccc(Cl)cc2)cn1 [2:18, 5-{5-[(4-Chlorophenyl)cyclopropylmethylamino]pyridine-2-carbonyl}-2-(3-chlorophenylsulfanyl)benzoic acid] |
| 81 nM | – | – | COc1cccc(Sc2ccc(C(=O)c3ccc(N(CC4CC4)c4ccc(Cl)cc4)cn3)cc2C(=O)O)c1 [2:19, 5-{5-[(4-Chlorophenyl)cyclopropylmethylamino]pyridine-2-carbonyl}-2-(3-methoxy-phenylsulfanyl)-benzoic acid] |
| 85 nM | – | – | COc1ccc(Sc2ccc(C(=O)c3ccc(N(CC4CC4)c4ccc(Cl)cc4)cn3)cc2C(=O)O)cc1 [2:20, 5-{5-[(4-Chlorophenyl)cyclopropylmethylamino]pyridine-2-carbonyl}-2-(4-methoxyphenylsulfanyl)benzoic acid] |
| 215 nM | – | – | CCCCCCSc1cc(C(=O)O)cc(C(=O)c2ccc(N(C)c3ccc(Cl)cc3)cn2)c1 [2:23, 3-{5-[(4-Chlorophenyl)methylamino]pyridine-2-carbonyl}-5-(1-hexyl)-sulfanylbenzoic acid] |
| 135 nM | – | – | CN(c1ccc(Cl)cc1)c1ccc(C(=O)c2cc(Sc3ccccc3)cc(C(=O)O)c2)nc1 [2:24, 3-{5-[(4-Chlorophenyl)methylamino]pyridine-2-carbonyl}-5-phenylsulfanyl-benzoic acid] |
| 143 nM | – | – | COc1cccc(Sc2cc(C(=O)O)cc(C(=O)c3ccc(N(C)c4ccc(Cl)cc4)cc3)c2)c1 [2:25, 3-(4-((4-Chlorophenyl)(methyl)amino)benzoyl)-5-(3-methoxyphenylsulfanyl)benzoic acid] |

| IC50 [1] | IC50 [2] | inhibition at 10 µM | SMILES |
| --- | --- | --- | --- |
| 165 nM | – | – | CN(c1ccc(Cl)cc1)c1ccc(C(=O)c2cc(Sc3cccc(Cl)c3)cc(C(=O)O)c2)cc1 [2:26, 3-(4-((4-Chlorophenyl)(methyl)amino)benzoyl)-5-(3-chlorophenylsulfanyl)benzoic acid] |
| 328 nM | – | – | COc1ccc(Sc2cc(C(=O)O)cc(C(=O)c3ccc(N(C)c4ccc(Cl)cc4)cc3)c2)cc1OC [2:27, 3-(4-((4-Chlorophenyl)(methyl)amino)benzoyl)-5-(3,4-dimethoxyphenylsulfanyl)benzoic acid] |
| 148 nM | – | – | CN(c1ccc(Cl)cc1)c1ccc(C(=O)c2cc(Sc3cccc(OC(F)(F)F)c3)cc(C(=O)O)c2)cc1 [2:28, 3-(4-((4-Chlorophenyl)(methyl)amino)benzoyl)-5-(3-(trifluoromethoxy)phenylsulfanyl)benzoic acid] |
| 88 nM | – | – | CN(c1ccc(Cl)cc1)c1ccc(C(=O)c2cc(Sc3ccc(F)c(F)c3)cc(C(=O)O)c2)cc1 [2:29, 3-(4-((4-Chlorophenyl)(methyl)amino)benzoyl)-5-(3,4-difluorophenylsulfanyl)benzoic acid] |
| 175 nM | – | – | CN(c1ccc(Cl)cc1)c1ccc(C(=O)c2cc(Sc3ccccc3)cc(C(=O)O)c2)cc1 [2:30, 3-(4-((4-Chlorophenyl)(methyl)amino)benzoyl)-5-(phenysulfanyl)benzoic acid] |
| – | 215 nM | – | CCCCCCSc1cc(C(=O)O)cc(C(=O)c2ccc(N(C)c3ccc(Cl)cc3)cn2)c1 [4:3, 3-{5-[(4-Chlorophenyl)(methyl)amino]picolinoyl}-5-(1-hexyl)-sulfanylbenzoic acid] |
| – | 135 nM | – | CN(c1ccc(Cl)cc1)c1ccc(C(=O)c2cc(Sc3ccccc3)cc(C(=O)O)c2)nc1 [4:4, 3-{5-[(4-Chlorophenyl)(methyl)amino]picolinoyl}-5-phenylsulfanylbenzoic acid] |
| – | 143 nM | – | COc1cccc(Sc2cc(C(=O)O)cc(C(=O)c3ccc(N(C)c4ccc(Cl)cc4)cc3)c2)c1 [4:5, 3-{4-[(4-Chlorophenyl)(methyl)amino]benzoyl}-5-(3-methoxyphenyl-sulfanyl)benzoic acid] |
| – | 165 nM | – | CN(c1ccc(Cl)cc1)c1ccc(C(=O)c2cc(Sc3cccc(Cl)c3)cc(C(=O)O)c2)cc1 [4:6, 3-{4-[(4-Chlorophenyl)(methyl)amino]benzoyl}-5-(3-chlorophenyl-sulfanyl)benzoic acid] |
| – | 328 nM | – | COc1ccc(Sc2cc(C(=O)O)cc(C(=O)c3ccc(N(C)c4ccc(Cl)cc4)cc3)c2)cc1OC [4:7, 3-{4-[(4-Chlorophenyl)(methyl)amino]benzoyl}-5-(3,4-dimethoxyphenyl-sulfanyl)benzoic acid] |
| – | 148 nM | – | CN(c1ccc(Cl)cc1)c1ccc(C(=O)c2cc(Sc3cccc(OC(F)(F)F)c3)cc(C(=O)O)c2)cc1 [4:8, 3-{4-[(4-Chlorophenyl)(methyl)amino]benzoyl}-5-(3-(trifluoromethoxy)-phenylsulfanyl)benzoic acid] |
| – | 88 nM | – | CN(c1ccc(Cl)cc1)c1ccc(C(=O)c2cc(Sc3ccc(F)c(F)c3)cc(C(=O)O)c2)cc1 [4:9, 3-{4-[(4-Chlorophenyl)(methyl)amino]benzoyl}-5-(3,4-difluorophenyl-sulfanyl)benzoic acid] |
| – | 175 nM | – | CN(c1ccc(Cl)cc1)c1ccc(C(=O)c2cc(Sc3ccccc3)cc(C(=O)O)c2)cc1 [4:10, 3-{4-[(4-Chlorophenyl)(methyl)amino]benzoyl}-5-(phenysulfanyl)benzoic acid] |
| 56 nM | – | 100% | CCCCCC[S+]([O-])c1ccc(C(=O)c2ccc(N(C)c3ccc(Cl)cc3)cc2)cc1C(=O)O (stereo not shown) [Example 1:1, 5-{4-[(4-Chlorophenyl)(methyl)amino]benzoyl}-2-(1-hexylsulfinyl)benzoic acid] |
| 66 nM | – | 100% | CN(c1ccc(Cl)cc1)c1ccc(C(=O)c2ccc([S+]([O-])c3ccc(Cl)cc3)c(C(=O)O)c2)cc1 (stereo not shown) [Example 1:2, 5-{4-[(4-Chlorophenyl)(methyl)amino]benzoyl}-2-(4-chlorophenylsulfinyl)benzoic acid] |
| 26 nM | – | – | O=C(c1ccc(N(CC2CC2)c2ccc(Cl)cc2)cc1)c1ccc([S+]([O-])c2ccccc2)c(C(=O)O)c1 (stereo not shown) [Example 1:11, 5-{4-[(4-Chlorophenyl)(cyclopropylmethyl)amino]benzoyl}-2-phenylsulfinyl-benzoic acid] |
| 29 nM | – | – | CCCCCC[S+]([O-])c1ccc(C(=O)c2ccc(N(CC3CC3)c3ccc(Cl)cc3)cc2)cc1C(=O)O (stereo not shown) [Example 1:12, 5-{4-[(4-Chlorophenyl)cyclopropylmethylamino]benzoyl}-2-(1-hexylsulfinyl)-benzoic acid] |
